Source: the NIST ThermoML archive (doi:10.1021/je101206u)

Assay: xn = mol fraction of the nth substance listed
Settings: 101 kPa, Liquid

CCCCn1cc[n+](C)c1.F[B-](F)(F)F [1-butyl-3-methylimidazolium tetrafluoroborate] + C[S+](C)[O-]
Settings	mass density [kg/m3]	viscosity [mPa·s]
293.15 K, x1 = 0.0722	1120.91	3.514
293.15 K, x1 = 0.1764	1142.23	6.283
293.15 K, x1 = 0.2145	1148.47	7.911
293.15 K, x1 = 0.3225	1162.89	13.46
293.15 K, x1 = 0.4189	1172.83	20.76
293.15 K, x1 = 0.607	1186.94	42.17
293.15 K, x1 = 0.6557	1188.45	48.88
293.15 K, x1 = 0.8283	1197.44	83.33
293.15 K, x1 = 0.9155	1201.03	107.2
293.15 K, x1 = 1	1204.44	136.9
298.15 K, x1 = 0.0722	1116.22	–
298.15 K, x1 = 0.1764	1137.84	–
298.15 K, x1 = 0.2145	1144.16	–
298.15 K, x1 = 0.3225	1158.77	–
298.15 K, x1 = 0.4189	1168.84	–
298.15 K, x1 = 0.607	1182.57	–
298.15 K, x1 = 0.6557	1185.38	–
298.15 K, x1 = 0.8283	1193.78	–
298.15 K, x1 = 0.9155	1197.43	–
298.15 K, x1 = 1	1200.89	–
303.15 K, x1 = 0.0722	1111.54	2.827
303.15 K, x1 = 0.1764	1133.45	4.839
303.15 K, x1 = 0.2145	1139.87	5.968
303.15 K, x1 = 0.3225	1154.66	9.732
303.15 K, x1 = 0.4189	1164.85	14.46
303.15 K, x1 = 0.607	1179.32	27.68
303.15 K, x1 = 0.6557	1181	31.52
303.15 K, x1 = 0.8283	1190.12	51.43
303.15 K, x1 = 0.9155	1193.83	64.87
303.15 K, x1 = 1	1197.34	81.4
313.15 K, x1 = 0.0722	1102.21	2.324
313.15 K, x1 = 0.1764	1124.71	3.845
313.15 K, x1 = 0.2145	1131.31	4.668
313.15 K, x1 = 0.3225	1146.47	7.347
313.15 K, x1 = 0.4189	1156.91	10.58
313.15 K, x1 = 0.607	1171.76	19.29
313.15 K, x1 = 0.6557	1173.63	21.66
313.15 K, x1 = 0.8283	1182.84	33.94
313.15 K, x1 = 0.9155	1186.65	42.14
313.15 K, x1 = 1	1190.27	51.79
323.15 K, x1 = 0.0722	1092.89	1.951
323.15 K, x1 = 0.1764	1116.01	3.137
323.15 K, x1 = 0.2145	1122.79	3.767
323.15 K, x1 = 0.3225	1138.33	5.742
323.15 K, x1 = 0.4189	1149.02	8.052
323.15 K, x1 = 0.607	1164.25	14.12
323.15 K, x1 = 0.6557	1166.3	15.79
323.15 K, x1 = 0.8283	1175.62	25.01
323.15 K, x1 = 0.9155	1179.53	29.99
323.15 K, x1 = 1	1183.24	38.04
333.15 K, x1 = 0.0722	1083.58	1.668
333.15 K, x1 = 0.1764	1107.34	2.615
333.15 K, x1 = 0.2145	1114.3	3.118
333.15 K, x1 = 0.3225	1130.22	4.618
333.15 K, x1 = 0.4189	1141.18	6.327
333.15 K, x1 = 0.607	1156.79	10.69
333.15 K, x1 = 0.6557	1158.97	11.78
333.15 K, x1 = 0.8283	1168.44	17.38
333.15 K, x1 = 0.9155	1172.45	20.96
333.15 K, x1 = 1	1176.25	24.97
343.15 K, x1 = 0.0722	1074.29	1.447
343.15 K, x1 = 0.1764	1098.7	2.222
343.15 K, x1 = 0.2145	1105.83	2.638
343.15 K, x1 = 0.3225	1122.16	3.801
343.15 K, x1 = 0.4189	1133.38	5.104
343.15 K, x1 = 0.607	1149.37	8.359
343.15 K, x1 = 0.6557	1151.6	8.977
343.15 K, x1 = 0.8283	1161.32	13.21
343.15 K, x1 = 0.9155	1165.43	15.78
343.15 K, x1 = 1	1169.32	18.49
353.15 K, x1 = 0.0722	1064.99	1.272
353.15 K, x1 = 0.1764	1090.08	1.918
353.15 K, x1 = 0.2145	1097.39	2.278
353.15 K, x1 = 0.3225	1114.12	3.195
353.15 K, x1 = 0.4189	1125.62	4.21
353.15 K, x1 = 0.607	1141.99	6.702
353.15 K, x1 = 0.6557	1144.28	7.182
353.15 K, x1 = 0.8283	1154.24	10.34
353.15 K, x1 = 0.9155	1158.44	12.24
353.15 K, x1 = 1	1162.44	14.37

C[S+](C)[O-] [dimethyl sulfoxide] + CCCCn1cc[n+](C)c1.F[B-](F)(F)F
x2 = 0
Settings	mass density [kg/m3]	viscosity [mPa·s]
293.15 K	1100.76	2.21
298.15 K	1095.74	–
303.15 K	1090.73	1.843
313.15 K	1080.69	1.556
323.15 K	1070.66	1.337
333.15 K	1060.63	1.165
343.15 K	1050.58	1.028
353.15 K	1040.51	0.917

CCCCn1cc[n+](C)c1.F[B-](F)(F)F [1-butyl-3-methylimidazolium tetrafluoroborate] + OCCO
Settings	mass density [kg/m3]	viscosity [mPa·s]
293.15 K, x1 = 0.0895	1133.64	19.89
293.15 K, x1 = 0.1758	1147.86	19.29
293.15 K, x1 = 0.3578	1167.8	23.44
293.15 K, x1 = 0.4397	1174.28	23.39
293.15 K, x1 = 0.6482	1187.63	39.69
293.15 K, x1 = 0.8121	1196.19	68.29
293.15 K, x1 = 1	1204.44	136.9
298.15 K, x1 = 0.0895	1129.95	–
298.15 K, x1 = 0.1758	1144.07	–
298.15 K, x1 = 0.3578	1163.96	–
298.15 K, x1 = 0.4397	1170.46	–
298.15 K, x1 = 0.6482	1183.91	–
298.15 K, x1 = 0.8121	1192.56	–
298.15 K, x1 = 1	1200.89	–
303.15 K, x1 = 0.0895	1126.26	12.66
303.15 K, x1 = 0.1758	1140.28	12.72
303.15 K, x1 = 0.3578	1160.12	15.48
303.15 K, x1 = 0.4397	1166.64	17.5
303.15 K, x1 = 0.6482	1180.21	26.17
303.15 K, x1 = 0.8121	1188.95	41.88
303.15 K, x1 = 1	1197.34	81.4
313.15 K, x1 = 0.0895	1118.86	8.881
313.15 K, x1 = 0.1758	1132.71	8.902
313.15 K, x1 = 0.3578	1152.49	10.87
313.15 K, x1 = 0.4397	1159.07	12.33
313.15 K, x1 = 0.6482	1172.85	18.29
313.15 K, x1 = 0.8121	1181.74	28.17
313.15 K, x1 = 1	1190.27	51.79
323.15 K, x1 = 0.0895	1111.43	6.422
323.15 K, x1 = 0.1758	1125.13	6.528
323.15 K, x1 = 0.3578	1144.89	8.034
323.15 K, x1 = 0.4397	1151.54	9.112
323.15 K, x1 = 0.6482	1165.56	13.41
323.15 K, x1 = 0.8121	1174.6	20.62
323.15 K, x1 = 1	1183.24	35.23
333.15 K, x1 = 0.0895	1103.95	4.88
333.15 K, x1 = 0.1758	1117.55	4.971
333.15 K, x1 = 0.3578	1137.35	6.16
333.15 K, x1 = 0.4397	1144.07	7.005
333.15 K, x1 = 0.6482	1158.32	10.2
333.15 K, x1 = 0.8121	1167.55	14.84
333.15 K, x1 = 1	1176.25	24.97
343.15 K, x1 = 0.0895	1096.42	3.807
343.15 K, x1 = 0.1758	1109.96	3.909
343.15 K, x1 = 0.3578	1129.84	4.87
343.15 K, x1 = 0.4397	1136.64	5.552
343.15 K, x1 = 0.6482	1151.14	8.019
343.15 K, x1 = 0.8121	1160.56	11.41
343.15 K, x1 = 1	1169.32	18.49
353.15 K, x1 = 0.0895	1088.83	2.872
353.15 K, x1 = 0.1758	1102.35	3.163
353.15 K, x1 = 0.3578	1122.35	3.932
353.15 K, x1 = 0.4397	1129.25	5.153
353.15 K, x1 = 0.6482	1144	6.479
353.15 K, x1 = 0.8121	1153.54	8.692
353.15 K, x1 = 1	1162.44	14.37

OCCO [1,2-ethanediol] + CCCCn1cc[n+](C)c1.F[B-](F)(F)F
x2 = 0
Settings	mass density [kg/m3]	viscosity [mPa·s]
293.15 K	1113.45	21.44
303.15 K	1106.45	14.33
313.15 K	1099.38	10.01
323.15 K	1092.24	7.121
333.15 K	1085	5.33
343.15 K	1077.65	4.103
353.15 K	1070.17	3.242
